Results from US8895744B2, “Alfa-carboline inhibitors of NPM-ALK, RET, and Bcr-Abl” (Universita' Degli Studi di Milano-Bicocca, priority 2008, dated 2014).

Experiments:
[1] = molecular target: T1, Recombinant Abl T315I protein (Homo sapiens, UniProt P00519, T315I); test: Abl T315I mutant kinase inhibitory activity, ELISA-based in vitro kinase assay; type: biochemical; details: purified Abl T315I, 0.3 mM ATP
T1 construct: made in house; host or cells: Sf9 cells (baculovirus)
Description: (§1) Recombinant ALK kinase was expressed in Sf9 insect cells using the pBlueBacHis2C baculovirus vector system and purified using an anion exchange Fast Flow Q-sepharose column (Amersham-Pharmacia Biotech) followed by HiTrap™-nickel affinity column (Amersham-Pharmacia Biotech). Purified ALK protein was used to screen inhibitors in the ELISA-based kinase assay. A Nunc Immuno 96 well plate was incubated overnight at 37° C. with coating solution (125 μL/well) containing ALK peptide substrate ([…]) (SEQ ID NO: 1) at various concentrations in PBS. Wells were then washed with 200 μL of wash buffer (PBS-Tween 0.05%) and left to dry for at least 2 h at 37° C. The kinase reaction was performed in the presence of 50 mM Tris pH 7.5, 5 mM MnCl2, 5 mM MgCl2, 0.3 mM ATP and purified rALK in a total volume of 100 μL/well at 30° C. for 15 min. For inhibitor testing the reaction mix was preincubated with the inhibitor or solvent control for 10 min at room temperature before transferring to the ELISA plate. After the reaction wells were washed 5 times with 200 μL of wash buffer. Phosphorylated peptide was detected using 100 μL/well of a mouse monoclonal anti-phosphotyrosine antibody (clone 4G10 Upstate Biotech Ltd) diluted 1:2000 in PBS+4% BSA. After 30 min incubation at room temperature the antibody was removed and wells were washed as described above. 100 μL of a secondary antibody (anti-mouse IgG, Horseradish Peroxidase linked whole antibody, Amersham Pharmacia Biotech) diluted 1:1000 in PBS+4% BSA was added to each well and the plate was incubated again for 30 min at room temperature before washing as above. The plate was developed using 100 μL/well TMB Substrate Solution (Endogen) and the reaction was stopped by adding an equiv.ual volume of H2SO4 0.36 M. Finally, the absorbance was read at 450 nm using an Ultrospec® 300 spectrophotometer (Amersham-Pharmacia Biotech). The concentration of the test solution showing 50% inhibition as compared with the control was expressed as IC50 (μM).
37. Abl T315I Mutant Kinase Inhibitory Activity
(§2) Method: ELISA-Based In Vitro Kinase Assay
Recombinant Abl T315I protein was expressed in Sf9 cells using the pBlueBacHis2C baculovirus expression vector. Abl T315I was purified using an anion exchange Fast Flow Q-sepharose column (Amersham-Pharmacia Biotech) followed by HiTrap™-nickel affinity column (Amersham-Pharmacia Biotech). Purified Abl T315I was used in the ELISA-based kinase assay to screen inhibitors as described above. The kinase reaction was performed in the presence of 50 mM Tris pH 7.5, 1 mM MnCl2, 5 mM MgCl2, 0.3 mM ATP, peptide substrate ([…]) (SEQ ID NO: 1) and purified Abl T315I. The concentration of the test solution showing 50% inhibition as compared with the control was expressed as IC50 (μM).

[2] = molecular target: T2, Recombinant ALK kinase (Homo sapiens, UniProt Q9UM73); test: ALK kinase inhibitory activity, ELISA-based in vitro kinase assay; type: biochemical; details: purified rALK, 0.3 mM ATP, read-out: ALK IC50
T2 construct: made in house; host or cells: Sf9 insect cells (baculovirus)
T2 sequence (Q9UM73 19-1620): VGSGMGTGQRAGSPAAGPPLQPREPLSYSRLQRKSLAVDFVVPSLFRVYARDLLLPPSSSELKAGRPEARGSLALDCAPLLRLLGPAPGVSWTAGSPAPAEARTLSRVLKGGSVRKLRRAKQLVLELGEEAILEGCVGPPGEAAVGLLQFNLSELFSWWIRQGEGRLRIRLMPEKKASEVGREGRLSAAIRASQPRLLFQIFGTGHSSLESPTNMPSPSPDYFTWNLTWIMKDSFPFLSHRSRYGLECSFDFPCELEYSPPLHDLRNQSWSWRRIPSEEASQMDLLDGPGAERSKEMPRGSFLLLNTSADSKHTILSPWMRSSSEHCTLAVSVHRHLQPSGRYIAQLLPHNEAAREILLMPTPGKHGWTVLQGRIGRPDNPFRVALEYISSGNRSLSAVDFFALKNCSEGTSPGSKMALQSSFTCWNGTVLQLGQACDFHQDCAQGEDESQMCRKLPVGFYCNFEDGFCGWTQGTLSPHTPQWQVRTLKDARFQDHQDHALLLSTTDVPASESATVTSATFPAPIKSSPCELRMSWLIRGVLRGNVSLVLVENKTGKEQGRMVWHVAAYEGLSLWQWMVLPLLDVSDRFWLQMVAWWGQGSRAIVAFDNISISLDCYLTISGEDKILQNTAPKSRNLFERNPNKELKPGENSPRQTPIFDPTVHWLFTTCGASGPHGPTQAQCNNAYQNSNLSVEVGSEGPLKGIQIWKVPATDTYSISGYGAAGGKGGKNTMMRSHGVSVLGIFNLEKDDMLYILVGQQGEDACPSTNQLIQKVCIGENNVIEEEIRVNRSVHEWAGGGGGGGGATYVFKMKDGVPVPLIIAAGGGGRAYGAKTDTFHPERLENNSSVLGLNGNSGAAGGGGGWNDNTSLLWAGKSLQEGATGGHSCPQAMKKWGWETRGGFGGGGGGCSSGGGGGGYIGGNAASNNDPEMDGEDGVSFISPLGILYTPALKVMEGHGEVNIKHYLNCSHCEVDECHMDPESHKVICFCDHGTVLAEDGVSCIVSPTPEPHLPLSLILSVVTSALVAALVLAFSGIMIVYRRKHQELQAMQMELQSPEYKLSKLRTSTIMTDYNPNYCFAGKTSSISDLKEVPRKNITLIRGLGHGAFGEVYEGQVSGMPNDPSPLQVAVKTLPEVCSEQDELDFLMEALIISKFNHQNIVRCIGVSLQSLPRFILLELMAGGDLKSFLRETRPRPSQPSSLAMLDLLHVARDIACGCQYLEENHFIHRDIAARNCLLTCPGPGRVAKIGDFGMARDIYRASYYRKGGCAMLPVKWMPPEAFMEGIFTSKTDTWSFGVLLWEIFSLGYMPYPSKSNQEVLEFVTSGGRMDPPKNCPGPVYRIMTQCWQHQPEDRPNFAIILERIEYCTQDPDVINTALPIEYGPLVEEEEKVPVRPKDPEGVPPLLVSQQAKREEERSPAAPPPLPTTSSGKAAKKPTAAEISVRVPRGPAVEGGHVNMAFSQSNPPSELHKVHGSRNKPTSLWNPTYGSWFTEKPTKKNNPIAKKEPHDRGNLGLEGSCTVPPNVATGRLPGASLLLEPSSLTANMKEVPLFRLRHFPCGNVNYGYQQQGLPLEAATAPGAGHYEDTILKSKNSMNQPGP
Description: 36. Alk Kinase Inhibitory Activity
as §2, §1

[3] = molecular target: T3, BaF3 cells transformed with the oncogenic fusion protein NPM/ALK (Homo sapiens, UniProt Q9UM73); test: Tritiated thymidine uptake cell proliferation assay, BaF3 NPM/ALK; type: cell-based; details: 3[H]-thymidine uptake, 72 h; read-out: BaF NPM/ALK IC50
T3 construct: fused on or other part: P06748 (Nucleophosmin)
T3 sequence (Q9UM73 whole entry, change not shown, the tested form may be a part): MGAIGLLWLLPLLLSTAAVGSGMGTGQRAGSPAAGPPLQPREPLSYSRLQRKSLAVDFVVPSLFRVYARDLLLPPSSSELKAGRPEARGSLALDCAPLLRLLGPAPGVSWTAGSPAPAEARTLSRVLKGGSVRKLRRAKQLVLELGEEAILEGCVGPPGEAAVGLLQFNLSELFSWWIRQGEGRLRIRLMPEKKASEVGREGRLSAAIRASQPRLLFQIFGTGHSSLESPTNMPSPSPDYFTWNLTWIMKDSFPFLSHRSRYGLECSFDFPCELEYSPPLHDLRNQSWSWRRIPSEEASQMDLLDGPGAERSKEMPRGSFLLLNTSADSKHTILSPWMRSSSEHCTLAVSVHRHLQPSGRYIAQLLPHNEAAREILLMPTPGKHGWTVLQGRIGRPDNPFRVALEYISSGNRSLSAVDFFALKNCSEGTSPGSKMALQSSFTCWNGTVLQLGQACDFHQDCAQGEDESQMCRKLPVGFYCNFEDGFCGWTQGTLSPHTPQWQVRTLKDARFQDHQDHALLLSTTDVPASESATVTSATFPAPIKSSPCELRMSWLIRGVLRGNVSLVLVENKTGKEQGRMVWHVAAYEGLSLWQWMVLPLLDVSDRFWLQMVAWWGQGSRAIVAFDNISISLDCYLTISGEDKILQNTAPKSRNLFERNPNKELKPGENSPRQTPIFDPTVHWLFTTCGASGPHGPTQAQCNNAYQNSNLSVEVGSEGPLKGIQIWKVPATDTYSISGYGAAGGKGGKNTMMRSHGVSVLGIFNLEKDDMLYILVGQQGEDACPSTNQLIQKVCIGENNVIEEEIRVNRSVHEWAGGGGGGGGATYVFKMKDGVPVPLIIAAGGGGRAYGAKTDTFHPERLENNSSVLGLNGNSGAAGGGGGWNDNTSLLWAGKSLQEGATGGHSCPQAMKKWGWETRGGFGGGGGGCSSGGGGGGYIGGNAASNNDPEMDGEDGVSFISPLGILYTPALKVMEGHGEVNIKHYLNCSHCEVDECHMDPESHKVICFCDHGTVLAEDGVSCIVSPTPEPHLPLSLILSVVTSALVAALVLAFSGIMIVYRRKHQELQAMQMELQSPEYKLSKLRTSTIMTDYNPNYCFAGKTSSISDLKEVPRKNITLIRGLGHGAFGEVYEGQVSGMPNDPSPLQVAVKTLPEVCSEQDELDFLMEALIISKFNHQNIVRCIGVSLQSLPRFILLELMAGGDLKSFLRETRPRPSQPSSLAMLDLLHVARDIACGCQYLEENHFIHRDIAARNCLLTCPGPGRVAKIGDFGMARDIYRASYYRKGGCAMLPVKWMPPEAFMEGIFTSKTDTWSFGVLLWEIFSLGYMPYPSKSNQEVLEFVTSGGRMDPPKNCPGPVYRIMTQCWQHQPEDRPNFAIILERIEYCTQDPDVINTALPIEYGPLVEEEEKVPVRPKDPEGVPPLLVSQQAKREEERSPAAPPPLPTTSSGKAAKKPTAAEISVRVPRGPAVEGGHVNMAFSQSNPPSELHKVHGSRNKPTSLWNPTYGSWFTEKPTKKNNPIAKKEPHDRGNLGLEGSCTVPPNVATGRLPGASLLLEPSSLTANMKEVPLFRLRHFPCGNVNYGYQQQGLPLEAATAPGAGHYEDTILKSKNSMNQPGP
Description: Inhibition of the proliferation of NPM/ALK positive cells
(§3) Method: Tritiated Thymidine Uptake Cell Proliferation Assay
(§4) The following procedure was used with parent untransformed BaF3 cells, BaF3 cells transformed with the oncogenic fusion protein NPM/ALK, NPM/ALK positive SUDHL-1 cells, ALK-negative U937 cells, NPM/ALK positive KARPAS-299 cells. The parent untransformed BaF3 cells and Alk-negative U937 cells are used as controls. Cells were seeded in U-bottomed 96-well plates at 10 000 cells/well in a volume of 100 μL in supplemented medium. In the case of the parent untransformed BaF3 cells, the medium was supplemented with IL-3. Serial dilutions of inhibitors were added to the appropriate wells and volumes adjusted to 200 μL. Controls were treated with the equivalent volume of vehicle, DMSO, alone. Plates were incubated at 37° C. for 72 h. ^3[H]-thymidine (1 μCi/well) was added for the last 16 h of incubation. Cells were harvested on to paper filters and ^3[H]-thymidine incorporation was measured using a β scintillation counter (1430 MicroBeta, Wallac, Turku, Finland). The 50% inhibitory concentration (IC50) was defined as the concentration of inhibitor, expressed in micromolar, that gave a 50% decrease in ^3[H]-thymidine uptake compared with controls.

[4] = system: parent untransformed BaF3 cells; test: Tritiated thymidine uptake cell proliferation assay, parental BaF3 (control); type: cell-based; details: Mus musculus, 3[H]-thymidine uptake, 72 h, medium with IL-3, read-out: BaF parental IC50
Description: as §3, §4
as §4, with “protein bcr-abl, Abl-negative” for “protein NPM/ALK, NPM/ALK positive SUDHL-1 cells, ALK-negative”, “cells, or Bcr-abl” for “cells, NPM/ALK”, “positive LAMA-84” for “positive KARPAS-299”, “and Abl-negative” for “and Alk-negative”, “in ^3H-thymidine” for “in ^3[H]-thymidine”
as §4, with “RET-PTC2, or RET-negative 11937” for “NPM/ALK, NPM/ALK positive SUDHL-1 cells, ALK-negative U937 cells, NPM/ALK positive KARPAS-299”, “RET-negative” for “Alk-negative”

Compound | melting point [°C] | other results
COc1ccc(-c2ccc3c(c2)c2c(Cl)ccnc2n3S(=O)(=O)c2ccccc2)cc1 [compound 34, 9-benzenesulfonyl-4-chloro-6-(4-methoxyphenyl)-9H-pyrido[2,3-b]indole] | 209 to 211 | 
Cc1ccc2c(n1)[nH]c1ccc(C(=O)O)cc12 [compound 6, 2-methyl-9H-pyrido[2,3-b]indol-6-carboxylic acid] | > 295 | 
COc1ccc(-c2ccc3c(c2)c2ccc(/C=C/c4ccccc4)nc2n3S(=O)(=O)c2ccccc2)cc1 [compound 43, 9-benzenesulfonyl-6-(4-methoxyphenyl)-2-(2′-phenylethenyl)-9H-pyrido[2,3-b]indole] | 193 to 195 | 
COc1ccc(-c2ccc3c(c2)c2cc(Cl)cnc2n3S(=O)(=O)c2ccccc2)cc1 [compound 26, 9-benzenesulfonyl-3-chloro-6-(4-methoxyphenyl)-9H-pyrido[2,3-b]indole] | > 220 | 
Clc1ccc2c(n1)[nH]c1ccc(Br)cc12 [compound 9, 6-bromo-2-chloro-9H-pyrido[2,3-b]indole] | > 220 | 
O=S(=O)(c1ccccc1)n1c2ccc(/C=C/c3ccccc3)cc2c2c(Cl)ccnc21 [compound 35, 9-benzenesulfonyl-4-chloro-6-(2′-phenylethenyl)-9H-pyrido[2,3-b]indole] | 216 to 218 | 
COc1ccc(-c2ccc3c(c2)c2ccc(Cl)nc2n3S(=O)(=O)c2ccccc2)cc1 [compound 32, 9-benzenesulfonyl-2-chloro-6-(4-methoxyphenyl)-9H-pyrido[2,3-b]indole] | 176 to 178 | 
O=S(=O)(c1ccccc1)n1c2ccc(Br)cc2c2c(Cl)ccnc21 [compound 21, 9-benzenesulfonyl-6-bromo-4-chloro-9H-pyrido[2,3-b]indole] | 212 to 214 | 
O=S(=O)(c1ccccc1)n1c2ccc(CCc3ccccc3)cc2c2cc(Cl)cnc21 [compound 61, 9-(benzenesulfonyl)-3-chloro-6-(2′-phenylethyl)-9H-pyrido[2,3-b]indole] | 158 to 162 | 
Clc1ccnc2[nH]c3ccc(Br)cc3c12 [compound 10, 6-bromo-4-chloro-9H-pyrido[2,3-b]indole] | > 220 | 
COc1ccc(-c2ccc3c(c2)c2c(/C=C/c4ccccc4)ccnc2n3S(=O)(=O)c2ccccc2)cc1 [compound 45, 9-benzenesulfonyl-6-(4-methoxyphenyl)-4-(2′-phenylethenyl)-9H-pyrido[2,3-b]indole] | 190 to 192 | 
O=C(O)CCC(=O)c1ccc2[nH]c3ncc(Cl)cc3c2c1 [compound 11, 4-(3-Chloro-9H-pyrido[2,3-b]indol-6-yl)-4-oxo-butyric acid] | 243 | 
O=C(O)c1ccc2[nH]c3ncc(Cl)cc3c2c1 [compound 5, 3-chloro-9H-pyrido[2,3-b]indol-6-carboxylic acid] | > 295 | 
COc1ccc(-c2ccc3c(c2)c2c(-c4ccc(OC)cc4)ccnc2n3S(=O)(=O)c2ccccc2)cc1 [compound 37, 9-benzenesulfonyl-4,6-di(4-methoxyphenyl)-9H-pyrido[2,3-b]indole] | 162 to 164 | 
O=S(=O)(c1ccccc1)n1c2ccc(/C=C/c3ccccc3)cc2c2cc(Cl)cnc21 [compound 27, 9-benzenesulfonyl-3-chloro-6-(2′-phenylethenyl)-9H-pyrido[2,3-b]indole] | 190 to 192 | 
CN1CCN(C(=O)CCC(=O)c2ccc3[nH]c4ncc(Cl)cc4c3c2)CC1 [R303, 1-(3-Chloro-9H-pyrido[2,3-b]indol-6-yl)-4-(4-methylpiperazin-1-yl)butane-1,4-dione] |  | IC50 [1]: 87 µM; IC50 [2]: 93 ± 1 µM; GI50 [3]: 5.1 µM; IC50 [4]: 9.5 µM
O=[N+]([O-])c1ccccc1Nc1ccc2c(n1)[nH]c1ccccc12 [R319, N-(2-nitrophenyl)-9H-pyrido[2,3-b]indol-2-amine] |  | IC50 [1]: 16 µM; IC50 [2]: 4.7 ± 0.2 µM; GI50 [3]: 11 µM; IC50 [4]: 44 µM
O=C(O)CCC(=O)c1ccc2[nH]c3nc(Cl)ccc3c2c1 [compound 12, 4-(2-Chloro-9H-pyrido[2,3-b]indol-6-yl)-4-oxo-butyric acid] | 280.8 | 
O=S(=O)(c1ccccc1)n1c2ccc(Br)cc2c2ccc(Cl)nc21 [compound 19, 9-benzenesulfonyl-6-bromo-2-chloro-9H-pyrido[2,3-b]indole] | 204 to 206 | 
C(=C\c1ccnc2[nH]c3ccccc3c12)/c1ccccc1 [R310, 4-(2′-phenylethenyl)-9H-pyrido[2,3-b]indole] | > 220 | 
Clc1cnc2[nH]c3ccc(-c4ccc(CN5CCOCC5)cc4)cc3c2c1 [R313, 3-chloro-6-(4-(morpholin-4-yl)methylphenyl)-9H-pyrido[2,3-b]indole] |  | IC50 [1]: > 10 µM; IC50 [2]: 8.8 ± 2.7 µM; GI50 [3]: 0.64 µM; IC50 [4]: 0.5 µM
O=S(=O)(c1ccccc1)n1c2ccc(Br)cc2c2cc(Cl)cnc21 [compound 20, 9-benzenesulfonyl-6-bromo-3-chloro-9H-pyrido[2,3-b]indole] | 242 | 
COc1ccc(-c2ccc3c(c2)c2ccc(-c4ccc(OC)cc4)nc2n3S(=O)(=O)c2ccccc2)cc1 [compound 36, 9-benzenesulfonyl-2,6-di(4-methoxyphenyl)-9H-pyrido[2,3-b]indole] | 206 to 208 | 
